Results from patent publication US20160113919A1 (The Board of Trustees of the Leland Stanford Junior …, priority 2014, published 2016).

Tested on: virulent Mtb strain H37Rv
Assay type: cell-based, Mycobacterium tuberculosis

`CCN(CC)CCC[C@@H](C)Nc1ccnc2cc(Cl)ccc12` [R-CQ, (R)-chloroquine] was tested, and the “EC80 (microbicidal activity, TB replication in macrophages)” value (“EC80” for short) was 1 µM and the “microbicidal activity compared with S-CQ or racemic CQ” value was “significantly higher”.
`CCN(CC)CCC[C@H](C)Nc1ccnc2cc(Cl)ccc12` [S-CQ, (S)-chloroquine] was tested, and the “EC80” value was about 10 µM.
`CCN(CC)CCCC(C)Nc1ccnc2cc(Cl)ccc12` (racemic) [racemic CQ, chloroquine] was tested, and the “EC80” value was about 10 µM.
